Measurements: PMC11995216, “End-to-End Backbone Cyclization Enhances Passive Permeability of bRo5 Oligomeric Depsipeptides with Nonlinear Size Dependence” (ACS Medicinal Chemistry Letters, 2025)
Where two headings read alike, the source gives them in different places.

How the values were obtained:
[1] = PAMPA, permeability assay across an artificial membrane; conditions: for Acceptor Concentration, Ave: after incubation
[2] = system: PAMPA
[3] = system: PAMPA; remark: listed apart in the source
[4] = PAMPA, ratio-based method, mean ± SD, C0 500 uM, UV detection

## CCCCC[C@@H]1OC(=O)[C@@H](C)N(C)C(=O)[C@H](CCCCC)OC(=O)[C@@H](C)N(C)C(=O)[C@H](CCCCC)OC(=O)[C@@H](C)N(C)C(=O)[C@H](CCCCC)OC(=O)[C@@H](C)N(C)C1=O [Compound C1.4, ent-verticilide]
[1]; PAMPA percent diffusion, C0 500 uM
  Diffusion (%): 25.5 ± 3.4%
[1]; PAMPA, Ave, ELSD detection, C0 500 uM
  Papp at 500 uM: 5.69 ×10⁻⁶ cm/s
[1]; [4]
  Papp at 500 uM: 7.14 ± 0.65 ×10⁻⁶ cm/s
  LogPapp: -5.21 ± 0.09
[1]; PAMPA, ELSD detection, C0 500 uM
  Acceptor Concentration, Ave: 118.4 µM
[1]; PAMPA, UV detection, C0 500 uM
  Acceptor Concentration, Ave: 127.6 µM
[1]; PAMPA, UV detection, C0 500 uM, listed as ent‐Verticilide
  Acceptor Concentration, Ave: 127.56 µM
[1]; increase: difference between percent diffusion of macrocycle vs linear counterpart
  Δ % diffusion: ↑14%
[2]; Papp (x 10^-6 cm/s) – ELSD Detection / [row 1], ELSD Detection
  Papp: 7.05 ×10⁻⁶ cm/s
[2]; Papp (x 10^-6 cm/s) – ELSD Detection / [row 2], ELSD Detection
  Papp: 7.2 ×10⁻⁶ cm/s
[2]; Papp (x 10^-6 cm/s) – ELSD Detection / [row 3], ELSD Detection
  Papp: 4.28 ×10⁻⁶ cm/s
[2]; Papp (x 10^-6 cm/s) – ELSD Detection / [row 4], ELSD Detection
  Papp: 7.39 ×10⁻⁶ cm/s
[2]; Papp (x 10^-6 cm/s) – ELSD Detection / [row 5], ELSD Detection
  Papp: 4.99 ×10⁻⁶ cm/s
[2]; Papp (x 10^-6 cm/s) – ELSD Detection / [row 6], ELSD Detection
  Papp: 6.24 ×10⁻⁶ cm/s
[2]; Papp (x 10^-6 cm/s) – ELSD Detection / [row 7], ELSD Detection
  Papp: 5.58 ×10⁻⁶ cm/s
[2]; Papp (x 10^-6 cm/s) – ELSD Detection / [row 8], ELSD Detection
  Papp: 7.27 ×10⁻⁶ cm/s
[2]; Papp (x 10^-6 cm/s) – ELSD Detection / [row 9], ELSD Detection
  Papp: 4.68 ×10⁻⁶ cm/s
[2]; Papp (x 10^-6 cm/s) – ELSD Detection / [row 10], ELSD Detection
  Papp: 4.63 ×10⁻⁶ cm/s
[2]; Papp (x 10^-6 cm/s) – ELSD Detection / [row 11], ELSD Detection
  Papp: 4.05 ×10⁻⁶ cm/s
[2]; Papp (x 10^-6 cm/s) – ELSD Detection / [row 12], ELSD Detection
  Papp: 6.98 ×10⁻⁶ cm/s
[2]; Papp (x 10^-6 cm/s) – ELSD Detection / [row 13], ELSD Detection
  Papp: 4.62 ×10⁻⁶ cm/s
[2]; Papp (x 10^-6 cm/s) – ELSD Detection / [row 14], ELSD Detection
  Papp: 3.79 ×10⁻⁶ cm/s
[2]; Papp (x 10^-6 cm/s) – ELSD Detection / [row 15], ELSD Detection
  Papp: 4.66 ×10⁻⁶ cm/s
[2]; Papp (x 10^-6 cm/s) – ELSD Detection / [row 16], ELSD Detection
  Papp: 5.98 ×10⁻⁶ cm/s
[2]; Papp (x 10^-6 cm/s) – ELSD Detection / [row 17], ELSD Detection
  Papp: 5.46 ×10⁻⁶ cm/s
[2]; Papp (x 10^-6 cm/s) – ELSD Detection / [row 18], ELSD Detection
  Papp: 6.2 ×10⁻⁶ cm/s
[2]; Papp (x 10^-6 cm/s) – ELSD Detection / [row 19], ELSD Detection
  Papp: 5.51 ×10⁻⁶ cm/s
[2]; Papp (x 10^-6 cm/s) – ELSD Detection / [row 20], ELSD Detection
  Papp: 5.72 ×10⁻⁶ cm/s
[2]; Papp (x 10^-6 cm/s) – ELSD Detection / [row 21], ELSD Detection
  Papp: 4.75 ×10⁻⁶ cm/s
[2]; Papp (x 10^-6 cm/s) – ELSD Detection / [row 22], ELSD Detection
  Papp: 7.56 ×10⁻⁶ cm/s
[2]; Papp (x 10^-6 cm/s) – ELSD Detection / [row 23], ELSD Detection
  Papp: 7.22 ×10⁻⁶ cm/s
[2]; Papp (x 10^-6 cm/s) – ELSD Detection / [row 24], ELSD Detection
  Papp: 4.78 ×10⁻⁶ cm/s
[2]; Papp (x 10^-6 cm/s) – UV Detection / [row 1], UV Detection
  Papp: 6.39 ×10⁻⁶ cm/s
[2]; Papp (x 10^-6 cm/s) – UV Detection / [row 2], UV Detection
  Papp: 7.95 ×10⁻⁶ cm/s
[2]; Papp (x 10^-6 cm/s) – UV Detection / [row 3], UV Detection
  Papp: 6.48 ×10⁻⁶ cm/s
[2]; Papp (x 10^-6 cm/s) – UV Detection / [row 4], UV Detection
  Papp: 7.85 ×10⁻⁶ cm/s
[2]; Papp (x 10^-6 cm/s) – UV Detection / [row 5], UV Detection
  Papp: 6.83 ×10⁻⁶ cm/s
[2]; Papp (x 10^-6 cm/s) – UV Detection / [row 6], UV Detection
  Papp: 7.11 ×10⁻⁶ cm/s
[2]; Papp (x 10^-6 cm/s) – UV Detection / [row 7], UV Detection
  Papp: 6.85 ×10⁻⁶ cm/s
[2]; Papp (x 10^-6 cm/s) – UV Detection / [row 8], UV Detection
  Papp: 7.63 ×10⁻⁶ cm/s
[2]; Papp (x 10^-6 cm/s) – UV Detection / [row 9], UV Detection
  Papp: 4.68 ×10⁻⁶ cm/s
[2]; Papp (x 10^-6 cm/s) – UV Detection / [row 10], UV Detection
  Papp: 4.63 ×10⁻⁶ cm/s
[2]; Papp (x 10^-6 cm/s) – UV Detection / [row 11], UV Detection
  Papp: 4.05 ×10⁻⁶ cm/s
[2]; Papp (x 10^-6 cm/s) – UV Detection / [row 12], UV Detection
  Papp: 6.98 ×10⁻⁶ cm/s
[2]; Papp (x 10^-6 cm/s) – UV Detection / [row 13], UV Detection
  Papp: 4.62 ×10⁻⁶ cm/s
[2]; Papp (x 10^-6 cm/s) – UV Detection / [row 14], UV Detection
  Papp: 3.79 ×10⁻⁶ cm/s
[2]; Papp (x 10^-6 cm/s) – UV Detection / [row 15], UV Detection
  Papp: 4.66 ×10⁻⁶ cm/s
[2]; Papp (x 10^-6 cm/s) – UV Detection / [row 16], UV Detection
  Papp: 5.98 ×10⁻⁶ cm/s
[2]; Papp (x 10^-6 cm/s) – UV Detection / [row 17], UV Detection
  Papp: 6.44 ×10⁻⁶ cm/s
[2]; Papp (x 10^-6 cm/s) – UV Detection / [row 18], UV Detection
  Papp: 7.86 ×10⁻⁶ cm/s
[2]; Papp (x 10^-6 cm/s) – UV Detection / [row 19], UV Detection
  Papp: 4.86 ×10⁻⁶ cm/s
[2]; Papp (x 10^-6 cm/s) – UV Detection / [row 20], UV Detection
  Papp: 6.27 ×10⁻⁶ cm/s
[2]; Papp (x 10^-6 cm/s) – UV Detection / [row 21], UV Detection
  Papp: 6.77 ×10⁻⁶ cm/s
[2]; Papp (x 10^-6 cm/s) – UV Detection / [row 22], UV Detection
  Papp: 5.18 ×10⁻⁶ cm/s
[2]; Papp (x 10^-6 cm/s) – UV Detection / [row 23], UV Detection
  Papp: 5.55 ×10⁻⁶ cm/s
[2]; Papp (x 10^-6 cm/s) – UV Detection / [row 24], UV Detection
  Papp: 6.05 ×10⁻⁶ cm/s
[3]; Acceptor Concentration (uM) – ELSD Detection / [row 1]
  Acceptor Concentration: 122 µM
[3]; Acceptor Concentration (uM) – ELSD Detection / [row 2]
  Acceptor Concentration: 148 µM
[3]; Acceptor Concentration (uM) – ELSD Detection / [row 3]
  Acceptor Concentration: 157 µM
[3]; Acceptor Concentration (uM) – ELSD Detection / [row 4]
  Acceptor Concentration: 122 µM
[3]; Acceptor Concentration (uM) – ELSD Detection / [row 5]
  Acceptor Concentration: 137 µM
[3]; Acceptor Concentration (uM) – ELSD Detection / [row 6]
  Acceptor Concentration: 76.5 µM
[3]; Acceptor Concentration (uM) – ELSD Detection / [row 7]
  Acceptor Concentration: 98.2 µM
[3]; Acceptor Concentration (uM) – ELSD Detection / [row 8]
  Acceptor Concentration: 94.4 µM
[3]; Acceptor Concentration (uM) – ELSD Detection / [row 9]
  Acceptor Concentration: 105 µM
[3]; Acceptor Concentration (uM) – ELSD Detection / [row 10]
  Acceptor Concentration: 92.1 µM
[3]; Acceptor Concentration (uM) – ELSD Detection / [row 11]
  Acceptor Concentration: 114 µM
[3]; Acceptor Concentration (uM) – ELSD Detection / [row 12]
  Acceptor Concentration: 159 µM
[3]; Acceptor Concentration (uM) – ELSD Detection / [row 13]
  Acceptor Concentration: 121 µM
[3]; Acceptor Concentration (uM) – ELSD Detection / [row 14]
  Acceptor Concentration: 125 µM
[3]; Acceptor Concentration (uM) – ELSD Detection / [row 15]
  Acceptor Concentration: 150 µM
[3]; Acceptor Concentration (uM) – ELSD Detection / [row 16]
  Acceptor Concentration: 136 µM
[3]; Acceptor Concentration (uM) – ELSD Detection / [row 17]
  Acceptor Concentration: 142 µM
[3]; Acceptor Concentration (uM) – ELSD Detection / [row 18]
  Acceptor Concentration: 129 µM
[3]; Acceptor Concentration (uM) – ELSD Detection / [row 19]
  Acceptor Concentration: 90.2 µM
[3]; Acceptor Concentration (uM) – ELSD Detection / [row 20]
  Acceptor Concentration: 59.8 µM
[3]; Acceptor Concentration (uM) – ELSD Detection / [row 21]
  Acceptor Concentration: 91.7 µM
[3]; Acceptor Concentration (uM) – ELSD Detection / [row 22]
  Acceptor Concentration: 130 µM
[3]; Acceptor Concentration (uM) – ELSD Detection / [row 23]
  Acceptor Concentration: 115 µM
[3]; Acceptor Concentration (uM) – ELSD Detection / [row 24]
  Acceptor Concentration: 125 µM
